Results taken from patent publication US20150297782A1, “NITRIC OXIDE-RELEASING DRESSINGS” (priority 2008, published 2015).

How the values were obtained:
[1] = Effect of varying oxygen concentrations on efficacy of 1000 ppm NO exposure; format: cell-based
Text: Prior art devices for delivering NO to treat wounds have required a closed environment. […] The oxygen may be environmental oxygen or may be delivered via an oxygen generating component within the dressing or apparatus.
The effect of various oxygen concentration levels on the efficacy of 1000 ppm treatment of NO was studied.

bacterial burden = settings: "It has been shown", no test described; cited from earlier work
[2] = humans, delivery to an infection site; cited from earlier work

In the case of `[N]=O` [NO, Nitric oxide], the CFU/mL ([1]; 0% Oxygen, 2 hour) is reported as 100,000 CFU/mL, the CFU/mL ([1]; 0% Oxygen, 4 hour) is reported as 100,000 CFU/mL and the CFU/mL ([1]; 14.5% Oxygen, 2 hour) is reported as 2730 CFU/mL. For the same molecule, the CFU/mL ([1]; 14.5% Oxygen, 3 hour) was 78 CFU/mL, the CFU/mL ([1]; 14.5% Oxygen, 4 hour) was 0 CFU/mL and the CFU/mL ([1]; 21% Oxygen, 1 hour) was 100,000 CFU/mL. The CFU/mL ([1]; 21% Oxygen, 2 hour) was 10,000 CFU/mL, the CFU/mL ([1]; 21% Oxygen, 3 hour) was 0 CFU/mL and the CFU/mL ([1]; 21% Oxygen, 4 hour) was 0 CFU/mL. For the same molecule, the “reduction of the bacterial burden” value (bacterial burden) was 5-6 log10 cfu/mL and the side-effects [2] was “does not have significant side-effects”.
